The test system of one data set is Mus musculus. The settings on record: acute; mortality.
The test system of a further data set is Folsomia candida. The settings on record: chronic/long-term; duration: 28 days; reproduction.
In another data set the test system is Tagia sp. The settings on record: chronic/long-term; duration: 56 days; reproduction.
Another data set has as its system Hypoaspis aculeifer. The settings on record: chronic/long-term; duration: 14 days; reproduction.
A further data set concerns Canidae. The settings on record: oral, Dog Other, organ weight.
A further data set concerns Cyprinodon variegatus. The settings on record: acute; duration: 96 hours; mortality.
In the next data set the test system is Daphnia magna. The note with it: chronic/long-term; duration: 21 days; reproduction.
In a further data set the test system is Bibionidae. The note with it: chronic/long-term; duration: 28 days.
The subject of the next data set is Apis mellifera. The settings on record: acute, mortality.
The subject of the next data set is Colinus virginianus. The note with it: oral.
The conditions of data set [1]: chronic.
A further data set has as its system Anas platyrhynchos. The note with it: reproductive.
The test system of a further data set is Pimephales promelas. The note with it: chronic/long-term; duration: 262 days; growth.
In the next data set the test system is Aphidius rhopalosiphi. Briefly: LR50; higher = less toxic. The settings on record: not reported; mortality.

Bounds are passed on as bounds.

As to `Cc1cc(C)cc(C(=O)N(NC(=O)c2cccc(O)c2C)C(C)(C)C)c1`, the LD50 in the data set with Mus musculus was above 5000 mg/kg.
Consider `COc1cccc(C(=O)NN(C(=O)c2cc(C)cc(C(=O)O)c2)C(C)(C)C)c1C`, for which the NOEC in the data set with Folsomia candida was found to be 20 mg/kg; in the data set on Tagia sp. it was 20 mg/kg; in the data set on Hypoaspis aculeifer it was 1000 mg/kg.
Consider `COc1cccc(C(=O)NN(C(=O)c2cc(C)cc(C)c2)C(C)(C)C)c1C` [Methoxyfenozide], for which the NOAEL in the data set on Canidae (chronic, duration: 1 years) was 9.8 mg/kg-day; in the data set with Canidae (short-term, duration: 2 weeks) it was 18 mg/kg-day; with Rattus norvegicus (chronic, duration: 2 years, organ weight), 10.2 mg/kg-day; with Rattus norvegicus (reproduction developmental, M, body weight), 153 mg/kg-day. In the data set with Cyprinodon variegatus, this compound returned an LC50 above 2.8 µg/mL. The NOEC was 0.39 mg/L with Daphnia magna; 20.5 mg/kg with Folsomia candida; 0.0065 mg/L in the data set with Bibionidae; above 82.7 mg/kg-day in the data set with Colinus virginianus (reproduction developmental, diet); 0.01 mg/L in data set [1]; 2.04 mg/kg in the data set on Tagia sp.. For the same compound, the NOEC with Pimephales promelas turned out to be 0.53 mg/L. The LD50 was above 100 µg/piece in the data set on Apis mellifera (duration: 48 hours, dermal); above 2000 µg/piece in the data set on Apis mellifera (duration: 72 hours, oral, unspecified); above 2250 mg/kg-day with Colinus virginianus (acute, mortality); above 5000 mg/kg in the data set on Rattus norvegicus (acute, oral, mortality); above 5000 mg/kg in the data set with Mus musculus. For the same compound, the NOEL in the data set with Anas platyrhynchos amounted to 138 mg/kg-day. This compound also returned an LR50 in the data set with Aphidius rhopalosiphi above 192 g/ha.

For the origin of these results see EPA's ToxValDB 9.5 (doi:10.2903/j.efsa.2017.4978).
